From patent publication US20190040025A1, “INDOLEAMINE 2,3-DIOXYGENASE INHIBITOR, PREPARATION METHOD THEREFOR, AND APPLICATION” (Jiangsu Hansoh Pharmaceutical Group Co., Ltd., priority 2016, published 2019) come the findings set out here.

Assay [1] has as its target T1, Human indoleamine 2,3-dioxygenase (IDO) (Homo sapiens, UniProt P14902).
T1 construct: purchased BPS Bioscience Inc
The assay can be described thus: Enzymatic test for IDO activity inhibition. Format: biochemical. The conditions noted are these: 40 nM IDO enzyme, 0.2 mM L-tryptophan, 60 minutes at 30° C. The protocol: Human indoleamine 2,3-dioxygenase (IDO) was purchased from BPS Bioscience Inc. The enzymatic reaction of idoleamine 2,3-dioxygenase (IDO) was performed in a 96-well plate with a reaction volume of 20 μL. The reaction conditions were: 40 nM IDO enzyme, 0.2 mM L-tryptophan, 50 mM KPB (pH 6.5) buffer, 20 mM sodium L-L-ascorbate, 10 μM methylene blue, 0.2 mg/mL catalase, different concentrations of compounds containing <1% dimethyl sulfoxide. After reacting for 60 minutes at 30° C., 5 μL of 30% (w/v) trichloroacetic acid (in 50 mM KPB buffer) weres added to each well. The plate was incubated for 30 minutes at 50° C. to hydrolyze N-formyl-kynurenine to kynurenine. 25 μL of 2% (w/v) p-(dimethylamino)benzaldehyde (p-DMBA)/glacial acetic acid solution were added to each well. The absorbance at 490 nm was read on a BioTek Synergy H1 microplate reader […].
The stock solution of the test compound was prepared to 10 mM with dimethyl sulfoxide, diluted with dimethyl sulfoxide to the highest concentration of the test during the experiment, then diluted in 1:3 gradient, and generally diluted to 8 to 10 concentration points. Duplicate wells were set for each concentration point, and one reference compound was included in each experiment. The original data of the absorbance at 490 nm read on a microplate reader were analyzed. The inhibition of IDO enzyme activity was calculated at different concentrations of the test compound. The half-inhibitory concentration IC50 value of the compound was obtained by non-linear fitting analysis of inhibition percentage data by GraphPad Prism software.

Assay [2] deals with T2, indoleamine 2,3-dioxygenase (IDO) in HeLa cells (Homo sapiens, UniProt P14902).
T2 construct: Interferon γ induced the expression of IDO in HeLa cells; host or cells: HeLa cells induced with interferon γ
Description: Cell model test for IDO activity inhibition (interferon γ induced HeLa cells). In kind it is cell-based. The conditions noted are these: interferon γ 50 ng/mL, 24 hours, read-out: Cytological Test IC50. Here is the method: Interferon γ induced the expression of IDO in HeLa cells. This model was used to test the inhibitory activity of compounds on indoleamine 2,3-dioxygenase (IDO). The culture medium of HeLa cells (ATCC) was phenol red-free RPMI-1640 containing 100 μM L-tryptophan. The stock solution of the test compound was prepared to 10 mM with dimethyl sulfoxide, and diluted with dimethyl sulfoxide to the highest concentration of the test during the experiment, then diluted in three-fold gradient, and generally diluted to 8 to 10 concentration points. Duplicate wells were set for each concentration point. The final concentration of DMSO was 0.5%, and internal reference compound was included in each experiment.
The procedure of the experiment was as follows: 20,000 HeLa cells (ATCC) per well were added on a 96-well culture plate and incubated overnight. After 24 hours, interferon γ (final concentration of 50 ng/mL) and different concentrations of the test compound and the internal reference compound were added to the incubated cells. After 24 hours, 140 μL of the supernatant/well was transferred to a new 96-well plate, and 10 μL of 6.1 N trichloroacetic acid was added to each well. The plate was incubated for 30 minutes at 50° C. to hydrolyze N-formyl-kynurenine to kynurenine. The reaction mixture was centrifuged at 2500 rpm for 10 minutes to remove the precipitate, and the supernatant (100 μL) was transferred to another new 96-well plate. 100 μL of 2% (W/V) p-(dimethylamino)benzaldehyde (p-DMBA)/glacial acetic acid solution was added to each well. The absorbance at 490 nm was read on a BioTek Synergy H1 microplate reader […].
The original data of the absorbance at 490 nm read on a microplate reader were analyzed. The inhibition of IDO enzyme activity was calculated at different concentrations of the test compound. The half-inhibitory concentration IC50 value of the compound was obtained by non-linear fitting analysis of inhibition percentage data by GraphPad Prism software.

T1 sequence (P14902 whole entry): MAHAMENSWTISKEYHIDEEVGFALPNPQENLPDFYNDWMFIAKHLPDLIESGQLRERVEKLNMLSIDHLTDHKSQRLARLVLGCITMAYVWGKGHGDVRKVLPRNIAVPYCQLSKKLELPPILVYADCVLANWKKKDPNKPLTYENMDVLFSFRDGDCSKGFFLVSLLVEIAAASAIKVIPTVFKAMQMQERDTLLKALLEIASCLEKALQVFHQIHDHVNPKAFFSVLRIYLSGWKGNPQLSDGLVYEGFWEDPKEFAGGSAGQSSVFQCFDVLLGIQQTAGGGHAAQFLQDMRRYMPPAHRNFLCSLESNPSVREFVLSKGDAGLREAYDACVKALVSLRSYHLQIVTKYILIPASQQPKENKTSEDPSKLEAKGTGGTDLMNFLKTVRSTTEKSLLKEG
T2 sequence (P14902 whole entry): as above

For `CS(=O)(CCNc1nonc1/C(=N/O)Nc1ccc(F)c(Br)c1)=NS(=O)(=O)C1CC1` (centres unmarked) [Example 15, (Z)—N-(3-bromo-4-fluorophenyl)-4-((2-(N-(cyclopropylsulfonyl)-S-methylsulfonimidoyl)ethyl)amino)-N′-hydroxy-1,2,5-oxadiazole-3-carboximidamide], the IC50 is 27 nM in assay [1] and 10 nM in assay [2].
